PubChem BioAssay AID248 (DTP/NCI, 2004)
Where “and” joins values, the source holds several entries; their conditions need not be identical. Equal entries are not always repeated. Inconclusive results and toxic doses are left out. Rule as the data show it: active = T/C of 150% or more; inactive = T/C below 125%.

Test system: L1210 leukemia ip in BDF1 mice, survival T/C
Assay: NCI In Vivo Anticancer Drug Screen. Data for tumor model L1210 Leukemia (intraperitoneal) in B6D2F1 (BDF1) mice
Conditions: endpoint: mean survival time, higher = longer survival
Summary of the method: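 In this screen, tumor-bearing mice given compound are compared to those given vehicle, and their survival values are reported as a treated-to-control quotient.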

[1] = dose: 100.0 mg/kg/injection, schedule: Q01DX009 (ip), vehicle: saline with Tween-80
[2] = dose: 200.0 mg/kg/injection, schedule: Q01DX009 (ip), vehicle: saline with Tween-80
[3] = dose: 50.0 mg/kg/injection, schedule: Q01DX001 (ip), vehicle: carboxymethylcellulose (CMC)
[4] = dose: 100.0 mg/kg/injection, schedule: Q01DX001 (ip), vehicle: carboxymethylcellulose (CMC)
[5] = dose: 100.0 mg/kg/injection, schedule: Q01DX009 (ip), vehicle: Klucel (hydroxypropylcellulose) (HPC)
[6] = dose: 100.0 mg/kg/injection, schedule: Q04DX003 (ip), vehicle: Klucel (hydroxypropylcellulose) (HPC)
[7] = dose: 200.0 mg/kg/injection, schedule: Q01DX001 (ip), vehicle: carboxymethylcellulose (CMC)
[8] = dose: 200.0 mg/kg/injection, schedule: Q01DX009 (ip), vehicle: Klucel (hydroxypropylcellulose) (HPC)
[9] = dose: 200.0 mg/kg/injection, schedule: Q04DX003 (ip), vehicle: Klucel (hydroxypropylcellulose) (HPC)
[10] = dose: 400.0 mg/kg/injection, schedule: Q04DX003 (ip), vehicle: Klucel (hydroxypropylcellulose) (HPC)
[11] = dose: 100.0 mg/kg/injection, schedule: Q04DX003 (ip), vehicle: saline with Tween-80
[12] = dose: 200.0 mg/kg/injection, schedule: Q04DX003 (ip), vehicle: saline with Tween-80
[13] = dose: 400.0 mg/kg/injection, schedule: Q04DX003 (ip), vehicle: saline with Tween-80
[14] = dose: 100.0 mg/kg/injection, schedule: Q01DX009 (ip), vehicle: saline
[15] = dose: 100.0 mg/kg/injection, schedule: Q04DX003 (ip), vehicle: saline
[16] = dose: 200.0 mg/kg/injection, schedule: Q01DX009 (ip), vehicle: saline
[17] = dose: 200.0 mg/kg/injection, schedule: Q04DX003 (ip), vehicle: saline
[18] = dose: 100.0 mg/kg/injection, schedule: Q01DX001 (ip), vehicle: saline
[19] = dose: 200.0 mg/kg/injection, schedule: Q01DX001 (ip), vehicle: saline
[20] = dose: 400.0 mg/kg/injection, schedule: Q01DX001 (ip), vehicle: saline
[21] = dose: 25.0 mg/kg/injection, schedule: Q01DX009 (ip), vehicle: saline
[22] = dose: 50.0 mg/kg/injection, schedule: Q01DX009 (ip), vehicle: saline

Measured: T/C

O=C(NCc1cnccn1)c1ccc(Cl)c(Cl)c1
inactive: [1] 98 % of control | [2] 98 % of control | dose: 400.0 mg/kg/injection, schedule: Q01DX009 (ip), vehicle: saline with Tween-80 106 % of control

O=P(O)(O)c1cccc(Oc2ccccc2)c1
inactive: dose: 75.0 mg/kg/injection, schedule: Q01DX001 (ip), vehicle: saline 100 % of control | dose: 150.0 mg/kg/injection, schedule: Q01DX001 (ip), vehicle: saline 100 % of control

O=C(O)c1c(-c2ccccc2)[nH]c2cc(Cl)ccc2c1=O
inactive: [3] 113 % of control | [4] 113 % of control | [5] 112 % of control | [6] 104 % of control | [7] 107 % of control | [8] 106 % of control | [9] 107 % of control | [10] 104 % of control

OCCCCN=Cc1ccccc1O.OCCCCN=Cc1ccccc1O.[Cu]
inactive: dose: 9.5 mg/kg/injection, schedule: Q01DX001 (ip), vehicle: other 102 % of control | dose: 19.0 mg/kg/injection, schedule: Q01DX001 (ip), vehicle: other 108 % of control | dose: 38.0 mg/kg/injection, schedule: Q01DX001 (ip), vehicle: other 100 % of control | dose: 75.0 mg/kg/injection, schedule: Q01DX001 (ip), vehicle: other 96 % of control

Cc1ccc(S(=O)(=O)N(C)c2ccc(C#N)c(Cl)c2Cl)cc1
inactive: [11] 98 % of control | [12] 96 % of control | [13] 98 % of control

CCNC(C)(C)C(Cl)c1cccs1 (stereo not drawn)
inactive: [14] 101 % of control | [15] 96 % of control | [16] 100 % of control | [17] 93 % of control

O=[N+]([O-])c1ccc(CS(=O)Cc2ccccc2)cc1 (stereo not drawn)
inactive: dose: 75.0 mg/kg/injection, schedule: Q01DX001 (ip), vehicle: carboxymethylcellulose (CMC) 91 % of control | dose: 150.0 mg/kg/injection, schedule: Q01DX001 (ip), vehicle: carboxymethylcellulose (CMC) 100 % of control | dose: 300.0 mg/kg/injection, schedule: Q01DX001 (ip), vehicle: carboxymethylcellulose (CMC) 100 % of control

NC(=O)NC1c2ccccc2-c2ccccc21
inactive: [3] 93 % of control | [4] 93 % of control | [7] 93 % of control | dose: 400.0 mg/kg/injection, schedule: Q01DX001 (ip), vehicle: carboxymethylcellulose (CMC) 93 % of control

CCN(CC)c1ccc2c(c1)Cc1ccccc1-2
inactive: [11] 100 % of control | [12] 98 % of control | [13] 100 % of control

O=C(O)c1ccc[nH]c1=O
inactive: dose: 100.0 mg/kg/injection, schedule: Q01DX001 (ip), vehicle: saline with Tween-80 97 % of control | dose: 200.0 mg/kg/injection, schedule: Q01DX001 (ip), vehicle: saline with Tween-80 95 % of control | dose: 400.0 mg/kg/injection, schedule: Q01DX001 (ip), vehicle: saline with Tween-80 98 % of control

CCOC(=O)C1(C2=NC(C)(C)CC(C)O2)CCCCC1 (stereo not drawn)
inactive: dose: 100.0 mg/kg/injection, schedule: Q01DX009 (ip), vehicle: other 102 % of control | dose: 200.0 mg/kg/injection, schedule: Q01DX009 (ip), vehicle: other 100 % of control | dose: 400.0 mg/kg/injection, schedule: Q01DX009 (ip), vehicle: other 107 % of control

O=c1sc2c(s1)CCCC2
inactive: dose: 100.0 mg/kg/injection, schedule: Q04DX002 (ip), vehicle: Klucel (hydroxypropylcellulose) (HPC) 108 % of control | dose: 200.0 mg/kg/injection, schedule: Q04DX002 (ip), vehicle: Klucel (hydroxypropylcellulose) (HPC) 101 % of control | dose: 400.0 mg/kg/injection, schedule: Q04DX002 (ip), vehicle: Klucel (hydroxypropylcellulose) (HPC) 92 % of control

c1ccc(-c2cc(-c3ccccc3)c(-c3ccccc3)c(-c3ccccc3)c2-c2ccccc2)cc1
inactive: dose: 50.0 mg/kg/injection, schedule: Q01DX009 (ip), vehicle: saline with Tween-80 87 % of control | [1] 93 % of control | [2] 93 % of control

COC(=O)c1ccc(C(=O)O)cc1
inactive: [11] 100 % of control | [12] 102 % of control | [13] 91 % of control

COC(=O)c1ccccc1C(=O)Nc1cc(C(F)(F)F)ccc1Cl
inactive: [5] 100 % of control | [8] 103 % of control | dose: 400.0 mg/kg/injection, schedule: Q01DX009 (ip), vehicle: Klucel (hydroxypropylcellulose) (HPC) 100 % of control

CC(=O)OC1COC(SSC2OCC(OC(C)=O)C(OC(C)=O)C2OC(C)=O)C(OC(C)=O)C1OC(C)=O (stereo not drawn)
inactive: [18] 89 % of control | [19] 89 % of control | [20] 101 % of control

CC1CC(C(C)CC(=O)O)C(=O)O1 (stereo not drawn)
inactive: [18] 102 % of control | [15] 111 % of control | [19] 95 % of control | [17] 108 % of control | [20] 97 % of control | dose: 400.0 mg/kg/injection, schedule: Q04DX003 (ip), vehicle: saline 101 % of control

COC(=O)/C=C1/Nc2cc(Cl)c(OC)cc2C(=O)NC1=O
inactive: dose: 75.0 mg/kg/injection, schedule: Q04DX003 (ip), vehicle: other 91 % of control | dose: 150.0 mg/kg/injection, schedule: Q04DX003 (ip), vehicle: other 91 % of control

N=C(N)C(N)=NCC(Br)CBr (stereo not drawn)
inactive: dose: 100.0 mg/kg/injection, schedule: Q04DX002 (ip), vehicle: saline 93 % of control | dose: 200.0 mg/kg/injection, schedule: Q04DX002 (ip), vehicle: saline 108 % of control

CCn1cc(C(=O)O)c(=O)c2ccc(C)nc21
inactive: [6] 97 % of control | [9] 96 % of control | [10] 94 % of control

Nc1ccc(C(=O)Nc2ccc(N(CCCl)CCCl)cc2)cc1
inactive: dose: 12.5 mg/kg/injection, schedule: Q01DX009 (ip), vehicle: saline 117 % of control | [21] 98 % of control and 114 % of control | [22] 120 % of control | dose: 50.0 mg/kg/injection, schedule: Q04DX003 (ip), vehicle: saline 115 % of control | [14] 114 % of control | [15] 118 % of control | [17] 97 % of control

C=CC[Si](Cl)(Cl)Cl
inactive: dose: 50.0 mg/kg/injection, schedule: Q01DX001 (ip), vehicle: saline 93 % of control | [18] 98 % of control

C/C=C/CCC(C)=O
inactive: [11] 99 % of control | [12] 100 % of control | [13] 108 % of control

C=CC1CC=CCC1 (stereo not drawn)
inactive: [11] 98 % of control | [12] 97 % of control | [13] 102 % of control

CSCCC(NC(C)=O)C(=O)NNC(C)C (stereo not drawn)
inactive: [21] 101 % of control | [22] 92 % of control | [14] 92 % of control | [16] 95 % of control | dose: 400.0 mg/kg/injection, schedule: Q01DX009 (ip), vehicle: saline 93 % of control
